Columns and labels:
[1] = system: Enterococcus faecalis 769; test: agar diffusion test (Test System II, multi-resistant germs); type: cell-based; design: key: r = resistant (no detectable zone of inhibition)
How it was run: (§1)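 Disc diffusion on Müller-Hinton II agar; inoculum McFarland 0.5 in saline, streaked in three directions. Discs carry 10/50/100 μg compound (MeOH or water). 37 °C, 18-20 h; read-out: zone-of-inhibition diameter.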

[2] = system: Staphylococcus aureus 315; test: as above; type: cell-based; design: key: r = resistant (no detectable zone of inhibition)
How it was run: as §1

[3] = system: Staphylococcus haemolyticus 535; test: as above; type: cell-based; design: key: r = resistant (no detectable zone of inhibition)
How it was run: as §1

S. aureus 36881 = test: as above; type: cell-based, Staphylococcus aureus; design: key: r = resistant (no detectable zone of inhibition)
How it was run: as §1

S. aureus 520 = test: as above; type: cell-based, Staphylococcus aureus; design: key: r = resistant (no detectable zone of inhibition)
How it was run: as §1

[4] = system: S. aureus North Germany strain; test: as above; type: cell-based, Staphylococcus aureus; design: key: r = resistant (no detectable zone of inhibition)
How it was run: as §1

S. aureus 38418 = test: as above; type: cell-based, Staphylococcus aureus
How it was run: as §1

S. aureus ATCC 6538 = test: as above; type: cell-based, Staphylococcus aureus
How it was run: as §1

S. epidermidis 847 = test: as above; type: cell-based, Staphylococcus epidermidis; design: key: r = resistant (no detectable zone of inhibition)
How it was run: as §1

S. epidermidis 125 = test: as above; type: cell-based, Staphylococcus epidermidis
How it was run: as §1

[5] = system: Staphylococcus aureus ATCC 6538; test: mouse infected with Staphylococcus aureus infection model (survival); type: in vivo, BALB/c mice
Method: Method for Effectiveness In Vivo with the Mouse Infected with Staphylococcus aureus Model
On Day 0, at least 3 BALB/c mice per test substance (Table 8) or controls are pretreated with cyclophosphamide (250 mg/kg) in 250 μl PBS inta peritoneal (i.p.).
On Day 2, the animals again received 100 mg/kg i.p.
On Day 2, a colony of the test germ is transferred from a growing agar plate (Müller-Hinton-Agar, Beckton Dickinson) into a flask with 10 ml CASO broth (CASO-B., Soyabean peptone-Casein peptone broth, SIFIN, 30 g/l) and is cultivated overnight at 37° C. and a shaking frequency of 250 rpm.
On Day 3, the pre-culture (Vk) is diluted 1:50 with CASO-B and further cultivated ca. 2 hours until an extinction in the medium of 0.6 at a wavelength of 550 nm is reached. Then, it is grown 1× with PBS at room temperature and set again to an extinction of 0.6.
At least 3 animals for a test substance or controls are infected with 10 μl/g body weight grown germs of a bacteria suspension with the extinction 0.6 (ca. 10^10-10^12 CFU, Colony forming units) i.p.
After 30 minutes, antibiotic solution is injected into the mice in a volume of 200 μl PBS with 3% DMSO i.p. 6 hours later, the second antibiotic injection is performed at the same concentration. […]

[6] = Quantity n 0.02 mol (first line per ingredient)
[7] = Quantity n 0.1 mol (second line per ingredient)
[8] = Quantity n 0.2 mol (third line per ingredient)
[9] = Quantity n 0.02 (first line per ingredient)
[10] = Quantity n 0.1 (second line per ingredient)
[11] = Quantity n 0.2 (third line per ingredient)

Row | Compound | Diameter of zone of inhibition, Enterococcus faecalis 769 ([1]; Quantity n 0.02) | Diameter of zone of inhibition, Enterococcus faecalis 769 ([1]; Quantity n 0.1) | Diameter of zone of inhibition, Enterococcus faecalis 769 ([1]; Quantity n 0.2) | Diameter of zone of inhibition, Staphylococcus aureus 315 ([2]; Quantity n 0.02 mol) | Diameter of zone of inhibition, Staphylococcus aureus 315 ([2]; Quantity n 0.1 mol) | Diameter of zone of inhibition, Staphylococcus aureus 315 ([2]; Quantity n 0.2 mol) | Diameter of zone of inhibition [3, 6] | Diameter of zone of inhibition [3, 7] | Diameter of zone of inhibition [3, 8] | Diameter of zone of inhibition, S. aureas 36881 (S. aureus 36881; Quantity n 0.02 mol) | Diameter of zone of inhibition, S. aureas 36881 (S. aureus 36881; Quantity n 0.1 mol) | Diameter of zone of inhibition, S. aureas 36881 (S. aureus 36881; Quantity n 0.2 mol) | Diameter of zone of inhibition, S. aureus 520 (S. aureus 520; Quantity n 0.02 mol) | Diameter of zone of inhibition, S. aureus 520 (S. aureus 520; Quantity n 0.1 mol) | Diameter of zone of inhibition, S. aureus 520 (S. aureus 520; Quantity n 0.2 mol) | Diameter of zone of inhibition, S. aureus North German strain [4, 6] | Diameter of zone of inhibition, S. aureus North German strain [4, 7] | Diameter of zone of inhibition, S. aureus North German strain [4, 8] | Diameter of zone of inhibition, S. aureas 38418 (S. aureus 38418; Quantity n 0.02) | Diameter of zone of inhibition, S. aureas 38418 (S. aureus 38418; Quantity n 0.1) | other results
1 | CC1=CC(NC(C(=O)NC2C(=O)N3C(C(=O)O)=C(C)CSC23)c2ccc(O)cc2)=CC(=O)C1=O (centres unmarked) [1q] | r^1 | r | 10 mm | r | 10 mm | 14 mm | r | r | 10 mm | r | r | 10 mm | r | r | 10 mm | r | 10 mm | 12 mm | 10^2 mm | 18 mm | Diameter of zone of inhibition, S. aureas 38418 (S. aureus 38418; Quantity n 0.2): 22 mm; Diameter of zone of inhibition, S. aureus ATCC 6538 (S. aureus ATCC 6538; [6]): 16 mm; Diameter of zone of inhibition, S. aureus ATCC 6538 (S. aureus ATCC 6538; [7]): 20 mm; Diameter of zone of inhibition, S. aureus ATCC 6538 (S. aureus ATCC 6538; [8]): 26 mm; Diameter of zone of inhibition, S. epidermidis 847 (S. epidermidis 847; [9]): r; Diameter of zone of inhibition, S. epidermidis 847 (S. epidermidis 847; [10]): 14 mm; Diameter of zone of inhibition, S. epidermidis 847 (S. epidermidis 847; [11]): 16 mm; Diameter of zone of inhibition, S. epidermidis 125 (S. epidermidis 125; [6]): 12 mm; Diameter of zone of inhibition, S. epidermidis 125 (S. epidermidis 125; [7]): 20 mm; Diameter of zone of inhibition, S. epidermidis 125 (S. epidermidis 125; [8]): 26 mm; Survival/tested mice n/n ([5]; 2 × 0.5 mg (25 mg/kg) i.p.): 3/6; Survival/tested mice n/n ([5]; 2 × 1.0 mg (50 mg/kg) i.p.): 1/3
2 | 3-chlorine-7-[2-(5-methyl-3,4-dioxocyclohexa-1,5-dienylamino)-2-phenyl-acetylamino]-8-oxo-5-azabicyclo[4.2.0]oct-3-ene-4-carboxylic acid [1s] | r | r | r | r | 8 mm | 12 mm | r | r | 10 mm | r | r | 10 mm | r | r | 10 mm | r | 8 mm | 14 mm | 14 mm | 24 mm | Diameter of zone of inhibition, S. aureas 38418 (S. aureus 38418; Quantity n 0.2): 28 mm; Diameter of zone of inhibition, S. aureus ATCC 6538 (S. aureus ATCC 6538; [6]): 20 mm; Diameter of zone of inhibition, S. aureus ATCC 6538 (S. aureus ATCC 6538; [7]): 30 mm; Diameter of zone of inhibition, S. aureus ATCC 6538 (S. aureus ATCC 6538; [8]): >30 mm; Diameter of zone of inhibition, S. epidermidis 847 (S. epidermidis 847; [9]): r; Diameter of zone of inhibition, S. epidermidis 847 (S. epidermidis 847; [10]): 14 mm; Diameter of zone of inhibition, S. epidermidis 847 (S. epidermidis 847; [11]): 18 mm; Diameter of zone of inhibition, S. epidermidis 125 (S. epidermidis 125; [6]): 14 mm; Diameter of zone of inhibition, S. epidermidis 125 (S. epidermidis 125; [7]): 22 mm; Diameter of zone of inhibition, S. epidermidis 125 (S. epidermidis 125; [8]): 26 mm

Source: patent US20110040086A1, “Novel Beta-Lactam Antibiotics, Methods for Their Production, and Their Use” (DRITTE PATENTPORTFOLIO BETEILIGUNGSGESELLSCHAFT MB, priority 2007, published 2011)
